Measured values reported in patent US6943148B1, “Methods for delivering therapeutics across blood-barrier and for altering receptor binding affinity” (Nobex Corporation, priority 1998, dated 2005).
Where a SMILES comes first, the peptide text is derived from it. Where no end group is shown, it is not given here. The star is where a group is joined. X1 = CCCCCCCCCCCCCCCCOCCOCCOC(=O)*

Key:
[1] = Extraction and detection of enkephalin conjugates from the brain of dosed rats (HPLC); type: in vivo; details: rat brain removed 10 minutes after dosing; 5 mg/kg cetyl-PEG2-enkephalin; compared with standard peak
Experimental: The following procedure was used to identify the presence of conjugate from the brain specimen of animals dosed with 5 mg/kg cetyl-PEG2-enkephalin SEQ ID NO: 1.
After 10 minutes of dosing, the brain of the animal was perfused with 1.5% triflouroacetic acid in PBS solution, and the brain was removed and frosen at −70° C. The brain was homogenized with 1 mL of 1.5% triflouroacetic acid in PBS solution and the homogenate was extracted with acetonitrile/isopropanol solution. The extract was treated with saturated sodium chloride solution and frozen at −20° C. for 2 hours. The organic layer was isolated and centrifuged at 4000 RPM. The supernatant was evaporated and the resulting residue was reconstituted in acetonitrile/isopropanol/water mixture. The reconstituted solution was analyzed by HPLC using a gradient of 10 to 100% isopropanol/water (0.1% trifloiroacetic acid) on a C-18 column. The presence and the concentration of cetyl-PEG2-enkephalin SEQ ID NO: 1 conjugate in the extract were measured by comparing the retention time and the peak area of standard solution under the same analytical condition.

[2] = system: Sprague-Dawley rats; assay: Rat paw-hot plate test; type: in vivo; details: for Mean Analgesia as Compared with Morphine at 3 mg/Kg @ 5 min / Mean Analgesia as Compared with Morphine at 3 mg/Kg @ 30 min: hot plate 52° C., dose (mg/kg): Morphine 3, Enkephalin 20, Cetyl 5, DHA 20, Cholesterol 5, Linolenic 10; for analgesic effect as compared to morphine as a baseline: hot plate, time not stated, enkephalin 20 mg/kg
Experimental: Adult, male Sprague-Dawley rats weighing 150-175 g were obtained from Charles River Breeding Laboratories (Raleigh, NC) and used for all animal studies. Rats were housed in hanging wire-bottomed cages in a vivarium equipped with a 12:12 light:dark cycle and humidity was maintained between 45-65% with a room temperature of […]. Rats were provided Purina Rodent Chow and tap water ad libitum.
Met-enkephalin-lys SEQ ID NO: 49 and met-enkephalin-lys SEQ ID NO: 1 derivatives were assessed for analgesic activity by rat paw-hot plate assay. Rats were given an injection of naloxone at 0.5 mg/kg (s.c.) then administered a single administration of cetyl-enkephalin SEQ ID NO: 1 by the tail vein 10 minutes later at a dose of 5.0 mg/kg.
In a separate study, rats were administered cetyl-enkephalin SEQ ID NO: 1 (5.0 mg/kg, i.v.) or clonidine (0.125 mg/kg, i.v.).
The latency to rat paw withdrawal from the hot plate was measured by a Hot Plate Analgesia Meter (Harvard Apparatus Ltd., Kent, England). The temperature of the hot plate was set and calibrated at 52° C. and rats were removed from the heat stimulus by 36 seconds after placement. Latency trials were terminated when the animal was either licking a hind paw or initiating a jump from the plate. Baseline measurements were collected 1 hour prior to drug administration and at various times post-injection, dependent upon the study conducted. All hot plate testing was terminated by 1 hour after drug dosing.

[3] = target: T1, μ-receptor (Rattus norvegicus, UniProt P33535); assay: % SPECIFIC BINDING; details: 0.1 µM
T1 construct: assessed for analgesic activity by rat paw-hot plate assay; from tissue; host or cells: whole living rat (in vivo)
T1 sequence (P33535 whole entry, looked up): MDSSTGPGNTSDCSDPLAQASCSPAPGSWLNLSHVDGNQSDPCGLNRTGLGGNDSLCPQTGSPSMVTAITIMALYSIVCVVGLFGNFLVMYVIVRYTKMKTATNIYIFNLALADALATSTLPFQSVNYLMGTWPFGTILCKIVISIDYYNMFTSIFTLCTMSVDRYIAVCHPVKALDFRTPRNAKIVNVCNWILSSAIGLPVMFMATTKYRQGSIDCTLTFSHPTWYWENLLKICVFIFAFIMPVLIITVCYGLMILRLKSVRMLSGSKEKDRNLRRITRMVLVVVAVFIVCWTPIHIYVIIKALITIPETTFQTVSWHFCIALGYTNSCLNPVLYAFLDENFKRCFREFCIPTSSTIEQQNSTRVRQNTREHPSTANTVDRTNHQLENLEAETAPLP
Text: Table printed on a drawing sheet, FIG.8
Head of the field: % […] BINDING
First copying reader's note: The title is printed as the top row inside the table frame and is given as the title, not as a grid row.

| Molecule | Mean Analgesia as Compared with Morphine at 3 mg/Kg @ 5 min [2] [%] | Mean Analgesia as Compared with Morphine at 3 mg/Kg @ 30 min [2] [%] | % SPECIFIC BINDING [3] [%] | also measured |
| --- | --- | --- | --- | --- |
| CCCCCCCCCCCCCCCCOCCOCCOC(=O)NCCCC[C@H](NC(=O)[C@H](CCSC)NC(=O)[C@H](Cc1ccccc1)NC(=O)CNC(=O)CNC(=O)[C@@H](N)Cc1ccc(O)cc1)C(=O)O [Cetyl-PEG-ENK, CETYL MET-ENKEPHALIN-LYS] (H-YGGFMK(X1)-OH) | – | – | – | Presence of conjugate peak in brain extract (HPLC) [1]: actually present in the brain exact |
| CN1CC[C@]23c4c5ccc(O)c4O[C@H]2[C@@H](O)C=C[C@H]3[C@H]1C5 [Morphine, reference compound] | 100 | 100 | – | – |
| CETYL-PEG2-ENK (SEQ ID NO: 1) (YGGFMK; also: cetyl-PEG2 conjugate, site not given here) [CETYL-ENK] | – | – | 100 | – |
| CETYL-PEG3-ENK (SEQ ID NO: 1) (YGGFMK; also: cetyl-PEG3 conjugate, site not given here) [CETYL-TEG-ENK] | – | – | 100 | – |
| CHOLESTEROL-PEG3-ENK (SEQ ID NO: 1) (YGGFMK; also: cholesterol-PEG3 conjugate, site not given here) [CHOL-ENK] | – | – | 95 | – |
| DHA MET-ENKEPHALIN-LYS [DHA-PEG-ENK] | 130 | 67 | – | analgesic effect as compared to morphine as a baseline [2]: 130% |
| DHA-PEG2-ENK (SEQ ID NO: 1) (YGGFMK; also: DHA-PEG2 conjugate, site not given here) [DHA-ENK] | – | – | 63 | – |
| LINOLEIC MET-ENKEPHALIN-LYS [Linolenic-PEG-ENK] | 77 | 73 | – | – |
| Met enkephalin-lys (YGGFMK) [reference compound] | 0 | 0 | – | analgesic effect as compared to morphine as a baseline [2]: 0%; Presence of conjugate peak in brain extract (HPLC) [1]: neither the vehicle (FIG. 5C) nor the unconjugated enkephalin SEQ ID NO: 49 (FIG. 5D) showed a corresponding peak |
| PALMITATE-PEG3-ENK (SEQ ID NO: 1) [PALM-ENK] | – | – | 76 | – |
